Reference: patent US8071654B2, “Inhibitors of thromboxane formation and action” (priority 2000, dated 2011)

Molecular target: T1, COX-1 (Ovis aries, UniProt P05979)
T1 construct: purchased Cayman Chemicals
T1 sequence (P05979 25-600): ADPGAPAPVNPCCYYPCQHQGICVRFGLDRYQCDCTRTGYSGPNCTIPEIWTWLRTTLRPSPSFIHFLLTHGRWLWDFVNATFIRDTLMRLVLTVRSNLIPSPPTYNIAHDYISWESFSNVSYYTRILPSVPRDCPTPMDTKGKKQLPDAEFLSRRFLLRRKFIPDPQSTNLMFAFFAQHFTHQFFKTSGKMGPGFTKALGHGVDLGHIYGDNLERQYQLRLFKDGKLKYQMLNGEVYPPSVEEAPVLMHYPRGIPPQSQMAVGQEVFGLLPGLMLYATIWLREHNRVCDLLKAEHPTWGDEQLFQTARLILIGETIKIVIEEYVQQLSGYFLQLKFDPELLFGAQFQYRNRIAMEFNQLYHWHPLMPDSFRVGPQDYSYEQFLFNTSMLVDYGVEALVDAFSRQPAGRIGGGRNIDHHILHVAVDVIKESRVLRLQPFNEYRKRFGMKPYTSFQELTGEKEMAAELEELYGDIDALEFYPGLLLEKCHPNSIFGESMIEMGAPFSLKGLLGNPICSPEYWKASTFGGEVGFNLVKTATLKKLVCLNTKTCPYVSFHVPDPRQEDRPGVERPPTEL
Test: COX-1 activity, 14C-arachidonic acid conversion, TLC
Format: biochemical
Conditions: for COX-1 enzyme activity (% of control values, mean ± SD): n = 3
Procedure: COX-1 and COX-2 enzyme preparations were purchased from Cayman Chemicals. Preliminary studies established that 40 U of COX-1 or COX-2 could convert about 70% of ^14C-arachidonic acid (spec. act. 55 mCi/mmol, Ontario Isotopes, Ontario, Canada; 100,000 cpm were diluted with 0.5 μg unlabeled arachidonic acid (Cayman Chemicals)/1 ml assay) into products in vitro. Different amounts of PBT-3 (10 μg and 20 μg) were added and the conversion of AA into products was assessed during a 10 min reaction in 1 ml phosphate buffer at 37°. After extraction, products were assessed by TLC (silica gel G, ethyl acetate/acetic acid, 99/1, v/v). After development, the TLC plates were scanned for radioactive products with a Berthold TLC radiochromatogram scanner and the radioactivity was quantified by scraping zones of silica gel, placing in scintillation vials, elution with 1 ml methanol and addition of scintillation medium. Radioactivity was determined by conventional counting in a beta scintillation counter.

- COX-1 enzyme activity (% of control values, mean ± SD) (PBT-3 3.00 μM): 119.6 ± 14^NS % of control
- COX-1 enzyme activity (% of control values, mean ± SD) (PBT-3 30.0 μM): 116.8 ± 11^NS % of control
Compound: CCCCC/C=C\CC1CC1[C@@H](O)/C=C\C/C=C\CCCC(=O)OC (stereo partly drawn) [PBT-3, 10(S)-hydroxy-11,12-cyclopropyl-eicosa-5Z,8Z,14Z-trienoic acid methyl ester]
- inhibition of COX-1, in words (relatively large amounts of PBT-3, about 3-4 log doses greater than required to inhibit the TP receptor): Neither COX-1, COX-2,12-LOX nor Plase A2 was inhibited
